{
  "source": "patent US12077508B2",
  "about": "“Inhibitors of the Notch transcriptional activation complex kinase (“NACK”) and methods for use of the same” (UNIVERSITY OF MIAMI, priority 2018, dated 2024)",
  "key": {"[1]": {"target": "T1, NACK (Mus musculus, UniProt Q571I4)", "T1 sequence (Q571I4 1-1373)": "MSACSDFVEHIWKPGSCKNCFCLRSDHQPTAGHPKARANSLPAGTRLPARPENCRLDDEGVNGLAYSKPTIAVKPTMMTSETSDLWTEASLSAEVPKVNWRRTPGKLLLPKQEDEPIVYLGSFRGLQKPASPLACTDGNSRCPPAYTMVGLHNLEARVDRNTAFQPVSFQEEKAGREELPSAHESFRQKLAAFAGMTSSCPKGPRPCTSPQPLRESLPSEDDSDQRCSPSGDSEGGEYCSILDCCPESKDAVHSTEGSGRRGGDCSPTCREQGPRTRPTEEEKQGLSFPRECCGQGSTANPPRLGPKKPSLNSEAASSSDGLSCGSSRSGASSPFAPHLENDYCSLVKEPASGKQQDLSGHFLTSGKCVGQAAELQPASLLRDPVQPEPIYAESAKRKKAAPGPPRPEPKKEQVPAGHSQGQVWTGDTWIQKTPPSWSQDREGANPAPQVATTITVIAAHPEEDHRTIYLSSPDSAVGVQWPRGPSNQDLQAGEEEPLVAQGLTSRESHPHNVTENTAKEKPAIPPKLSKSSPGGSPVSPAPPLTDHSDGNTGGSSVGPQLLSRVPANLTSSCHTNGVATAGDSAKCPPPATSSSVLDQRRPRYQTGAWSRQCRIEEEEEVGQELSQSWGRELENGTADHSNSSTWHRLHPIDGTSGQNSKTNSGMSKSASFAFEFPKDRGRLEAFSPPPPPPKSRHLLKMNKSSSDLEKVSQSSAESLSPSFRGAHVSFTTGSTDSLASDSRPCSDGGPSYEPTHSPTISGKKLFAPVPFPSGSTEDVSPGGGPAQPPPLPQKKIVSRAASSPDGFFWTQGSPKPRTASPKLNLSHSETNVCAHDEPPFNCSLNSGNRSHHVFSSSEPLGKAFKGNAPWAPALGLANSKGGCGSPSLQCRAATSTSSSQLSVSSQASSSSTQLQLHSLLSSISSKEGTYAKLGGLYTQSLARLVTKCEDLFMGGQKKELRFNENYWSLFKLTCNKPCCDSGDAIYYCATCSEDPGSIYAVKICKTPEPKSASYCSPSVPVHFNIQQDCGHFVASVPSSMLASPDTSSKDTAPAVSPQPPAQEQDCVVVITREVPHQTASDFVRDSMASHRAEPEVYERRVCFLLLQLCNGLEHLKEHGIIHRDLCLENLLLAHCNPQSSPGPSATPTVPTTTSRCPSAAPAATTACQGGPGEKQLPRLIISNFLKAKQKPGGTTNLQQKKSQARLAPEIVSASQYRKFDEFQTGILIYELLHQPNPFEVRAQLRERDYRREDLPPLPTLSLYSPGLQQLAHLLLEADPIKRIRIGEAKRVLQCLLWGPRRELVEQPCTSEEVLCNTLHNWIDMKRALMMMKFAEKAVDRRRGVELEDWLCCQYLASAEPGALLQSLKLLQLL", "assay": "Surface plasmon resonance (SPR) binding to GST tagged NACK", "conditions": "equilibrium approach, 1:1 binding model; 25° C.; FIG. 10A; read-out: KD", "description": "The interaction between inhibitor Z271-0326 and target NACK was characterized using surface plasmon resonance (SPR). For this purpose, GST tagged NACK was captured by a GST antibody that was previously immobilized onto the surface of the chip through standard amide coupling. The dissociation constants associated with binding of the compounds to NACK was determined using the equilibrium approach, which consists of plotting the equilibrium response (Req) as a function of concentration of the compound and fitting the data to a 1:1 binding model.\nA GST capture kit (GE Healthcare) were utilized to covalently immobilize an anti-GST antibody, provided in the kit, to the sensor chip surface (CM5 chip, GE Healthcare) by following the manufacturer's instructions. Capture were performed by injecting GST-NACK (1 μg/μL) over the immobilized anti-GST antibody in Hepes buffer (10 mM Hepes, pH 7.5, 150 mM NaCl, 3 mM EDTA, 0.0005% NP-40) for 7 min at 10 μL/min. A reference flow cell was prepared by capturing GST following the procedure described above. […] Experiments were performed on a Biacore T200 instrument (GE Healthcare) at 25° C. Small molecule inhibitors binding to NACK were performed in 50 mM Tris buffer, pH 7.5, containing 150 mM NaCl, 10 mM MgCl2 and 5% DMSO (running buffer). The SPR signal arising from the sample was corrected for its respective control containing DMSO. Data visualization and analysis was performed using Biacore T200 software (GE Healthcare) and Origin 8.0 (OriginLab)."}, "[2]": {"tested_on": "OE33 cells", "assay": "Cell apoptosis assay (Annexin V/PI flow cytometry)", "type": "cell-based, human", "conditions": "day 7 of treatment, FIG. 9A", "description": "To investigate how Z271-0326 inhibits cell growth in EAC cell lines, the effect of Z271-0326 treatment was evaluated on apoptosis. OE33 was treated either with the GSI DAPT or Z271-0326 every other day, and their effects on apoptosis were analyzed. On day 7 of treatment, cell apoptosis was analyzed using FITC Annexin V/Dead Cell Apoptosis Kit with FIFC annexin V and PI for flow cytometry (Invitrogen, V13242)."}, "[3]": {"assay": "Plasma pharmacokinetics", "type": "in vivo, male C57 BL/6 mice", "conditions": "for Tmax: ip", "from_the_text": "The plasma pharmacokinetic profile of Z271-0326 was investigated following a single intravenous and intraperitoneal dose administration in male C57 BL/6 mice (FIG. 12). […] The Vss was similar to the normal volume of total body water (0.7 L/kg). The Vss is a pharmacokinetic parameter, which represents the volume distribution of a drug in the body tissue. […] This dose was MTD for the 4-week efficacy studies shown in preliminary data.\nThe plasma pharmacokinetic profile of Z271-0326 was investigated following a single intravenous and intraperitoneal dose administration in male C57 BL/6 mice."}, "[4]": {"tested_on": "OE33 spheres", "assay": "Tumor sphere formation assay in OE33", "type": "cell-based, human", "description": "In order to assess the effect of hit to lead compounds on the proliferation of stem cell like population of Notch/NACK dependent cells, the primary tumor spheres were treated with NACK inhibitor and allow the cells to be propagated as secondary cultures. To obtain tumor spheres, cells were cultured in DMEM/F12 with 2% B-27 serum-free supplement (17604-044; Invitrogen), 20 ng/mL epidermal growth factor (EGF; PHG0311L; Invitrogen), and 20 ng/mL basic fibroblastic growth factor (bFGF; PHG0266; Invitrogen) for 14 days. Resulting tumor spheres were examined and counted under the microscope. Furthermore, the tumor spheres were collected for further RT-qPCR analysis to test the effect of hit to lead compounds on the stem like target genes."}},
  "data": [
    {"smiles": "CCN(CC)C(=O)c1cnn2ccc(C3CCN(S(=O)(=O)c4ccc(NC(C)=O)cc4)CC3)cc12", "note": "[Compound Z271-0326, 5-(1-((4-acetamidophenyl)sulfonyl)piperidin-4-yl)-N,N-diethylpyrazolo[1,5-a]pyridine-3-carboxamide]", "values": [
      {"measurement": "Kd", "setting": "[1]", "value": "890 ± 70", "unit": "nM"},
      {"measurement": "increase in the percent of cells undergoing apoptosis compared to the control", "setting": "[2]", "value": "threefold"},
      {"measurement": "Tmax", "setting": "[3]; male, C57BL/6, mouse, plasma, single intraperitoneal 25 mg/kg", "value": 15, "unit": "min"},
      {"measurement": "Tmax", "setting": "[3]; male, C57BL/6, mouse, plasma, single intraperitoneal 100 mg/kg", "value": 60, "unit": "min"},
      {"measurement": "clearance", "setting": "[3]; male, C57BL/6, mouse, plasma, single intravenous 5 mg/kg, read-out: systemic plasma clearance", "value": 30, "unit": "mL/min/kg"},
      {"measurement": "half-life", "setting": "[3]; male, C57BL/6, mouse, plasma, single intravenous 5 mg/kg, read-out: terminal elimination half-life (converted)", "value": 13.8, "unit": "min"},
      {"measurement": "Vd", "setting": "[3]; male, C57BL/6, mouse, plasma, single intravenous 5 mg/kg, similar to total body water, read-out: Vss", "value": "~0.7", "unit": "L/kg"},
      {"measurement": "time plasma concentrations quantifiable up to", "setting": "[3]; single intraperitoneal 25 mg/kg", "value": "up to 4 hr"},
      {"measurement": "time plasma concentrations quantifiable up to", "setting": "[3]; single intraperitoneal 100 mg/kg", "value": "up to 24 hr"},
      {"measurement": "secondary sphere formation", "setting": "[4]; OE33, FIG. 7A", "value": "decrease in the ability of cell spheres to form secondary spheres"},
      {"measurement": "Notch target genes transcription in spheres", "setting": "[4]; OE33 spheres, FIG. 7B", "value": "affected Notch target genes HES1, MYC, CCND1 and NACK transcription"}
    ]}
  ]
}
